Measured values: patent US5352680A, “Delta opioid receptor antagonists to block opioid agonist tolerance and dependence” (priority 1992, dated 1994)
Like-named read-outs stand apart in the source and are kept apart here.

Legend:
kappa opioid receptor [1] = settings: shown previously; cited from earlier work
[2] = test system: development of morphine tolerance in mice treated acutely with morphine; assay type: in vivo, mice (male Swiss-Webster); settings: NTI 10 pmol/mouse i.c.v.; morphine sulfate 100 mg/kg s.c.
delta opioid receptors [3] = target: T1, delta opioid receptors (Mus musculus, UniProt P32300); assay: Antagonism of delta opioid receptor agonists (DSLET) in vivo; design: species or system mice
T1 construct: from tissue; host or cells: living mouse, intracerebroventricular dosing (endogenous receptor)

delta opioid receptor = assay: Delta antagonist potency/selectivity comparison (one assay)
mu opioid receptors = assay: Effect on antinociceptive activity of the mu agonist DAMGO; assay type: in vivo, mice (male Swiss-Webster); settings: NTI 10 pmol/mouse, once or twice; 5'-NTII 10 nmol/mouse 24 hr before DAMGO
Experimental: (§1) NTI (10 pmol/mouse) was administered 100 min before the i.c.v. injection of DAMGO and 20 min later, at the peak effect of DAMGO, the antinociceptive activity of the peptide was assessed. In another group of mice, NTI (10 pmol/mouse) was administered twice, once at 100 min before and again at the same time as the i.c.v. injection of DAMGO. 5'-NTII (10 nmol/mouse) was administered 24 hr before being tested with DAMGO.

delta opioid receptors [4] = settings: shown previously; cited from earlier work
antinociceptive activity = assay: Antinociceptive activity of the antagonist itself; assay type: in vivo, mice; settings: for antinociceptive activity: mouse, in vivo
[5] = test system: development of morphine tolerance in mice treated chronically with morphine; assay type: in vivo, mice (male Swiss-Webster); settings: for increase of the ED50 of morphine sulfate vs control animals: antagonist together with morphine pellets; for effect on development of tolerance: with morphine pellets
Experimental: (§2) Male Swiss-Webster mice (BioLab, White Bear Lake, Minn.) weighing 20 to 25 g were used. The mice were rendered tolerant to and dependent on morphine by s.c. implantation of one morphine pellet (75 mg free base)/mouse for 3 days according to the procedure of E. L. Way et al., J. Pharmacol. Exp. Ther., 167, 1 (1969). Control animals were implanted with placebo pellets. Mice were anesthetized lightly with methoxyflurane during the implantation process. […] Chem. Pathol. Pharmacol., 16, 721 (1977).
At least 30 mice (10/group) and three to four dose levels were used to determine each ED50 value.
The ED50 values of morphine and their 95% CL were determined by the parallel line assay of D. J. Finney, Statistical Methods in Biological Assay, Hafner Pub. Co., N.Y. (2d ed. 1969) with the aid of a computer program which has the capability to analyze at the same time 12 lines (dose-response curves) and 6 points (dose levels) per line with log and probit transformations and 35 repetitions per point.
(§3) Mice were implanted with a single placebo (control) or morphine pellet (75 mg free base) for 3 days. NTI (10 pmol/mouse) was administered i.c.v. 90 min before and 24 and 48 hr after the morphine pellet implantation. 5'-NTII (10 nmol/mouse) was administered 24 hr before, at the same time as and 24 and 48 hr after the morphine pellet implantation.

mu opioid receptor [6] = settings: shown previously; cited from earlier work
[7] = test system: development of physical dependence in mice treated chronically with morphine; assay: Naloxone-induced withdrawal jumping: physical dependence, mice treated chronically with morphine; assay type: in vivo, mice (male Swiss-Webster); settings: with morphine pellet
Experimental: as §2, §3

[8] = test system: development of physical dependence in mice treated acutely with morphine; assay type: in vivo, mice (male Swiss-Webster)
mu opioid receptor [9] = settings: rats; cited from earlier work
mu opioid receptor [10] = settings: dose used by DeLander et al.; cited from earlier work
mu opioid receptor [11] = settings: monkeys; cited from earlier work
mu opioid receptor [12] = assay: Antagonism of mu opioid receptor agonists; assay type: in vivo; settings: 10 nmol/mouse i.c.v., 24 hours
Experimental: as §1

delta opioid receptors [13] = target: T1, delta opioid receptors; settings: previously reported; cited from earlier work
kappa opioid receptor [14] = assay: Antagonism of kappa opioid receptor agonists; assay type: in vivo; settings: 10 nmol/mouse i.c.v., 24 hours

T1 sequence (P32300 whole entry): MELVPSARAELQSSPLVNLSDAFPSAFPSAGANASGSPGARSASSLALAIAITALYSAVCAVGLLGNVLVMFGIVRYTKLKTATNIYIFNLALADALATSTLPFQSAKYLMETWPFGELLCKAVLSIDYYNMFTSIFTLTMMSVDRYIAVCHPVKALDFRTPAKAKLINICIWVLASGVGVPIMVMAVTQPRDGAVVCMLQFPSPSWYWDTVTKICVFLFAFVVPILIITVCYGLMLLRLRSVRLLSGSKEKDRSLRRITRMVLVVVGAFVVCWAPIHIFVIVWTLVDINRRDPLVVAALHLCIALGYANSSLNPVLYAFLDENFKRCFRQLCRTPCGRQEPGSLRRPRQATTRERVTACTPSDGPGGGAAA

Compound | effect on activity of kappa opioid receptor agonists (kappa opioid receptor [1]) | effect on the antinociceptive activity of DAMGO (mu opioid receptors) | antagonism of delta opioid receptor agonists (delta opioid receptors [4]) | antinociceptive activity (antinociceptive activity) | increase of the ED50 of morphine sulfate vs control animals [5] | effect on development of tolerance [5] | effect on activity of mu opioid receptor agonists (mu opioid receptor [6]) | effect on development of physical dependence [7] | also measured
Oc1ccc2c3c1O[C@H]1c4[nH]c5ccccc5c4C[C@@]4(O)[C@@H](C2)N(CC2CC2)CC[C@]314 [NTI, 17-(cyclopropylmethyl)-6,7-dehydro-3,14β-dihydroxy-4,5α-epoxy-6,7-2',3'-indolmorphinan] | minimal or no effect | neither NTI nor 5'-NTII, at the dosages and injection protocol used, altered the anti-nociceptive activity of DAMGO | highly effective antagonists against the activity of delta opioid receptor agonists | possesses antinociceptive activity | 2 fold | the development of tolerance was suppressed substantially | minimal or no effect | suppressed the development of dependence substantially | effect on development of acute tolerance [2]: completely prevented the development of acute tolerance; duration of antagonist activity against delta opioid receptor agonists (delta opioid receptors [3]; NTI, b221: against the antinociceptive effect of DSLET): 18 to 24 h; potency relative to ICI 174864 (delta opioid receptor; vs peptide delta antagonist ICI 174864): at least 500 times; selectivity relative to M8008 (delta opioid receptor; vs structurally unrelated opiate M8008): more selective than the structurally unrelated opiate M8008; maximum dose with selective antagonism at delta opioid receptors without detection of antinociceptive activity (antinociceptive activity; i.c.v.): 10 pmol/mouse; times more naloxone required to precipitate withdrawal jumping ([8]; pretreated twice with NTI before inducing dependence): 45 times; times more naloxone required to precipitate withdrawal jumping ([8]; single dose of NTI 90 min before or at same time as 100 mg/kg morphine sulfate): about 10 times
COC(=O)/C=C/C(=O)N[C@@H]1CC[C@@]2(O)[C@H]3Cc4ccc(O)c5c4[C@@]2(CCN3CC2CC2)[C@H]1O5 [β-FNA, β-funaltrexamine] |  |  |  |  |  |  |  |  | effect on development of morphine tolerance and dependence (mu opioid receptor [9]): inhibit the development of morphine tolerance and dependence in rats; effect on morphine-induced antinociception (mu opioid receptor [10]): significantly inhibited morphine-induced antinociception; withdrawal signs (mu opioid receptor [11]): induce long-lasting withdrawal signs in monkeys
Oc1ccc2c3c1O[C@H]1c4[nH]c5ccc(N=C=S)cc5c4C[C@@]4(O)[C@@H](C2)N(CC2CC2)CC[C@]314 [5'-NTII, naltrindole 5'-isothiocyanate] | minimal or no effect | neither NTI nor 5'-NTII, at the dosages and injection protocol used, altered the anti-nociceptive activity of DAMGO | highly effective antagonists against the activity of delta opioid receptor agonists | without any antinociceptive activity | 3 fold | the development of tolerance was suppressed substantially | minimal or no effect | appeared to block it completely | effect on ED50s of mu opioid receptor agonists (mu opioid receptor [12]): without affecting the ED50 s of mu or kappa opioid receptor agonists; selectivity for delta opioid receptors (delta opioid receptors [3]; 10 nmol/mouse i.c.v.): high selectivity for delta opioid receptors; increase of ED50 of DSLET (delta opioid receptors [3]; 24 hours after 10 nmol/mouse i.c.v.): 50 fold; duration of action against delta agonists (delta opioid receptors [13]): more than 48 hr; effect on ED50s of kappa opioid receptor agonists (kappa opioid receptor [14]): without affecting the ED50 s of mu or kappa opioid receptor agonists
